Test results from PubChem BioAssay AID1963825 (Molecular Pharmacology Branch, DTP, NCI, 2024).

Assay: Anticancer human tumor 997537-175-T-J1-PDC patient-derived colon adenocarcinoma cell line growth inhibition [POLQ]
Details: 997537-175-T-J1-PDC complex spheroid viability, combination with POLQ inhibitors; for IC50: curve of first compound; for viability, T/C: stronger effect = lower value
Outline: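 Complex spheroid viability model combining PDC tumour cells with endothelial (HUVEC) and MSC stromal cells. Novobiocin, ART-558 or RP6685 were tested singly and in combination with standard and investigational anticancer drugs. Each was titrated in half-log steps from near clinical Cmax, or from 10 microM where Cmax was unknown.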

[1] = second compound 0.0316 µM, first compound 0.00316 µM
[2] = second compound 0.0316 µM, first compound 0.01 µM
[3] = second compound 0.0316 µM, first compound 0.0316 µM
[4] = second compound 0.0316 µM, first compound 0.1 µM
[5] = second compound 0.0316 µM, first compound 0.316 µM
[6] = second compound 0.0316 µM, first compound 1 µM
[7] = second compound 0.1 µM, first compound 0.00316 µM
[8] = second compound 0.1 µM, first compound 0.01 µM
[9] = second compound 0.1 µM, first compound 0.0316 µM
[10] = second compound 0.1 µM, first compound 0.1 µM
[11] = second compound 0.1 µM, first compound 0.316 µM
[12] = second compound 0.1 µM, first compound 1 µM
[13] = second compound 0.316 µM, first compound 0.00316 µM
[14] = second compound 0.316 µM, first compound 0.01 µM
[15] = second compound 0.316 µM, first compound 0.0316 µM
[16] = second compound 0.316 µM, first compound 0.1 µM
[17] = second compound 0.316 µM, first compound 0.316 µM
[18] = second compound 0.316 µM, first compound 1 µM
[19] = second compound 1 µM, first compound 0.00316 µM
[20] = second compound 1 µM, first compound 0.01 µM
[21] = second compound 1 µM, first compound 0.0316 µM
[22] = second compound 1 µM, first compound 0.1 µM
[23] = second compound 1 µM, first compound 0.316 µM
[24] = second compound 1 µM, first compound 1 µM
[25] = second compound 3.16 µM, first compound 0.00316 µM
[26] = second compound 3.16 µM, first compound 0.01 µM
[27] = second compound 3.16 µM, first compound 0.0316 µM
[28] = second compound 3.16 µM, first compound 0.1 µM
[29] = second compound 3.16 µM, first compound 0.316 µM
[30] = second compound 3.16 µM, first compound 1 µM
[31] = second compound 10 µM, first compound 0.00316 µM
[32] = second compound 10 µM, first compound 0.01 µM
[33] = second compound 10 µM, first compound 0.0316 µM
[34] = second compound 10 µM, first compound 0.1 µM
[35] = second compound 10 µM, first compound 0.316 µM
[36] = second compound 10 µM, first compound 1 µM
[37] = second compound 0.0316 µM, first compound 3.16 µM
[38] = second compound 0.0316 µM, first compound 10 µM
[39] = second compound 0.1 µM, first compound 3.16 µM
[40] = second compound 0.1 µM, first compound 10 µM
[41] = second compound 0.316 µM, first compound 3.16 µM
[42] = second compound 0.316 µM, first compound 10 µM
[43] = second compound 1 µM, first compound 3.16 µM
[44] = second compound 1 µM, first compound 10 µM
[45] = second compound 3.16 µM, first compound 3.16 µM
[46] = second compound 3.16 µM, first compound 10 µM
[47] = second compound 10 µM, first compound 3.16 µM
[48] = second compound 10 µM, first compound 10 µM
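Further: luminescence signal used as a surrogate for viable cells; spheroids exposed to drugs for seven days before readout.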

CCc1c2c(nc3ccc(O)cc13)-c1cc3c(c(=O)n1C2)COC(=O)[C@]3(O)CC + COC1C(OC(N)=O)C(O)C(Oc2ccc3c(O)c(NC(=O)c4ccc(O)c(CC=C(C)C)c4)c(=O)oc3c2C)OC1(C)C
IC50 (second compound 0.0316 µM): 20.3 nM | IC50 (second compound 0.1 µM): 19.4 nM | IC50 (second compound 0.316 µM): 19.7 nM | IC50 (second compound 1 µM): 15.3 nM | IC50 (second compound 3.16 µM): 18.6 nM | IC50 (second compound 10 µM): 13.1 nM | viability, T/C [1]: 73.2% | viability, T/C [2]: 79.5% | viability, T/C [3]: 33.5% | viability, T/C [4]: 22.7% | viability, T/C [5]: 4.91% | viability, T/C [6]: 4.67% | viability, T/C [7]: 72.3% | viability, T/C [8]: 74.8% | viability, T/C [9]: 32.9% | viability, T/C [10]: 14.3% | viability, T/C [11]: 7.35% | viability, T/C [12]: 6.22% | viability, T/C [13]: 78% | viability, T/C [14]: 73% | viability, T/C [15]: 33.8% | viability, T/C [16]: 14.3% | viability, T/C [17]: 6.7% | viability, T/C [18]: 6.93% | viability, T/C [19]: 88.8% | viability, T/C [20]: 60.1% | viability, T/C [21]: 32.1% | viability, T/C [22]: 19.2% | viability, T/C [23]: 6.28% | viability, T/C [24]: 5.11% | viability, T/C [25]: 88.9% | viability, T/C [26]: 74% | viability, T/C [27]: 29.4% | viability, T/C [28]: 11.4% | viability, T/C [29]: 7.04% | viability, T/C [30]: 7.5% | viability, T/C [31]: 63.9% | viability, T/C [32]: 57.9% | viability, T/C [33]: 26.3% | viability, T/C [34]: 15% | viability, T/C [35]: 6.46% | viability, T/C [36]: 9.61%

CCCS(=O)(=O)Nc1ccc(F)c(C(=O)c2c[nH]c3ncc(-c4ccc(Cl)cc4)cc23)c1F + COC1C(OC(N)=O)C(O)C(Oc2ccc3c(O)c(NC(=O)c4ccc(O)c(CC=C(C)C)c4)c(=O)oc3c2C)OC1(C)C
IC50 (second compound 0.0316 µM): 5710 nM | IC50 (second compound 0.1 µM): 7590 nM | IC50 (second compound 0.316 µM): 6660 nM | IC50 (second compound 1 µM): 5260 nM | IC50 (second compound 3.16 µM): 6200 nM | IC50 (second compound 10 µM): 4780 nM | viability, T/C [3]: 93.4% | viability, T/C [4]: 96% | viability, T/C [5]: 87.1% | viability, T/C [6]: 84.8% | viability, T/C [37]: 71.5% | viability, T/C [38]: 30.6% | viability, T/C [9]: 102% | viability, T/C [10]: 92.6% | viability, T/C [11]: 84.9% | viability, T/C [12]: 78% | viability, T/C [39]: 77% | viability, T/C [40]: 41.2% | viability, T/C [15]: 82.8% | viability, T/C [16]: 91.6% | viability, T/C [17]: 77.8% | viability, T/C [18]: 84.1% | viability, T/C [41]: 75% | viability, T/C [42]: 36.2% | viability, T/C [21]: 86.4% | viability, T/C [22]: 79.5% | viability, T/C [23]: 73.2% | viability, T/C [24]: 75.2% | viability, T/C [43]: 72.7% | viability, T/C [44]: 21.7% | viability, T/C [27]: 95.6% | viability, T/C [28]: 78.9% | viability, T/C [29]: 77.3% | viability, T/C [30]: 73.5% | viability, T/C [45]: 78% | viability, T/C [46]: 30.1% | viability, T/C [33]: 81.4% | viability, T/C [34]: 84% | viability, T/C [35]: 90.8% | viability, T/C [36]: 85.6% | viability, T/C [47]: 63.9% | viability, T/C [48]: 25.3%

C=CC(=O)N1CCN(c2nc(=O)n(-c3c(C)ccnc3C(C)C)c3nc(-c4c(O)cccc4F)c(F)cc23)C(C)C1 (stereo not drawn) + COC1C(OC(N)=O)C(O)C(Oc2ccc3c(O)c(NC(=O)c4ccc(O)c(CC=C(C)C)c4)c(=O)oc3c2C)OC1(C)C
IC50 (second compound 0.0316 µM): > 10000 nM | IC50 (second compound 0.1 µM): > 10000 nM | IC50 (second compound 0.316 µM): > 10000 nM | IC50 (second compound 1 µM): > 10000 nM | IC50 (second compound 3.16 µM): > 10000 nM | IC50 (second compound 10 µM): > 10000 nM | viability, T/C [3]: 106% | viability, T/C [4]: 108% | viability, T/C [5]: 107% | viability, T/C [6]: 112% | viability, T/C [37]: 109% | viability, T/C [38]: 91.7% | viability, T/C [9]: 123% | viability, T/C [10]: 125% | viability, T/C [11]: 95.5% | viability, T/C [12]: 91.5% | viability, T/C [39]: 115% | viability, T/C [40]: 108% | viability, T/C [15]: 106% | viability, T/C [16]: 95.6% | viability, T/C [17]: 106% | viability, T/C [18]: 105% | viability, T/C [41]: 117% | viability, T/C [42]: 93.8% | viability, T/C [21]: 106% | viability, T/C [22]: 113% | viability, T/C [23]: 96.6% | viability, T/C [24]: 105% | viability, T/C [43]: 109% | viability, T/C [44]: 105% | viability, T/C [27]: 105% | viability, T/C [28]: 101% | viability, T/C [29]: 115% | viability, T/C [30]: 104% | viability, T/C [45]: 101% | viability, T/C [46]: 95.7% | viability, T/C [33]: 96.3% | viability, T/C [34]: 109% | viability, T/C [35]: 93% | viability, T/C [36]: 105% | viability, T/C [47]: 104% | viability, T/C [48]: 96.7%

CCc1c2c(nc3ccc(O)cc13)-c1cc3c(c(=O)n1C2)COC(=O)[C@]3(O)CC + Cc1cccc(N(C)C(=O)C2C(O)CCN2c2nc(C)cc(C(F)(F)F)c2C#N)c1
IC50 (second compound 0.0316 µM): 19.7 nM | IC50 (second compound 0.1 µM): 18.1 nM | IC50 (second compound 0.316 µM): 21.7 nM | IC50 (second compound 1 µM): 15.3 nM | IC50 (second compound 3.16 µM): 17.3 nM | IC50 (second compound 10 µM): 18.9 nM | viability, T/C [1]: 81.5% | viability, T/C [2]: 68.8% | viability, T/C [3]: 36.7% | viability, T/C [4]: 13.7% | viability, T/C [5]: 5.85% | viability, T/C [6]: 4.36% | viability, T/C [7]: 86.2% | viability, T/C [8]: 70.1% | viability, T/C [9]: 30.7% | viability, T/C [10]: 11.7% | viability, T/C [11]: 6.03% | viability, T/C [12]: 4.13% | viability, T/C [13]: 82.7% | viability, T/C [14]: 77.2% | viability, T/C [15]: 35.8% | viability, T/C [16]: 15.8% | viability, T/C [17]: 5.26% | viability, T/C [18]: 5.26% | viability, T/C [19]: 79.8% | viability, T/C [20]: 59.5% | viability, T/C [21]: 33.5% | viability, T/C [22]: 14.4% | viability, T/C [23]: 5.49% | viability, T/C [24]: 5.83% | viability, T/C [25]: 91.5% | viability, T/C [26]: 65.3% | viability, T/C [27]: 33% | viability, T/C [28]: 14.8% | viability, T/C [29]: 6.21% | viability, T/C [30]: 5.14% | viability, T/C [31]: 81.4% | viability, T/C [32]: 63% | viability, T/C [33]: 39.5% | viability, T/C [34]: 18.7% | viability, T/C [35]: 5.71% | viability, T/C [36]: 7.45%
